Source: patent publication US10513523B2, “Imidazopyrazines and pyrazolopyrimidines and their use as AMPA receptor modulators” (Janssen Pharmaceutica NV, priority 2015, dated 2019)

Target: GluA1o-γ8 (GRIA1o-CACNG8 fusion construct; TARP γ8 dependent AMPA receptor) (Homo sapiens (Human), UniProt P42261+Q8WXS5)
Assay: Calcium flux assay (FLIPR), inhibition of glutamate response of GluA1o-γ8 channel
Type: cell-based
Details: HEK293 cells stably expressing GRIA1o-CACNG8 fusion; 15 μM glutamate; pIC50 = negative log of IC50 in molar; read-out: GluR1-γ8 (pIC50) (converted)
Outline: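 Potency is the midpoint of a four-parameter logistic fit to control-normalized FLIPR calcium responses elicited by 15 μM glutamate. Stable HEK293 cells carried a fused GluA1o-γ8 construct and were preincubated with compound and calcium dye in pH 7.4 HEPES buffer.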

GluA1o-γ8 (GRIA1o-CACNG8 fusion construct; TARP γ8 dependent AMPA receptor), sequence (P42261 other isoform, or with tags, fused parts or gaps): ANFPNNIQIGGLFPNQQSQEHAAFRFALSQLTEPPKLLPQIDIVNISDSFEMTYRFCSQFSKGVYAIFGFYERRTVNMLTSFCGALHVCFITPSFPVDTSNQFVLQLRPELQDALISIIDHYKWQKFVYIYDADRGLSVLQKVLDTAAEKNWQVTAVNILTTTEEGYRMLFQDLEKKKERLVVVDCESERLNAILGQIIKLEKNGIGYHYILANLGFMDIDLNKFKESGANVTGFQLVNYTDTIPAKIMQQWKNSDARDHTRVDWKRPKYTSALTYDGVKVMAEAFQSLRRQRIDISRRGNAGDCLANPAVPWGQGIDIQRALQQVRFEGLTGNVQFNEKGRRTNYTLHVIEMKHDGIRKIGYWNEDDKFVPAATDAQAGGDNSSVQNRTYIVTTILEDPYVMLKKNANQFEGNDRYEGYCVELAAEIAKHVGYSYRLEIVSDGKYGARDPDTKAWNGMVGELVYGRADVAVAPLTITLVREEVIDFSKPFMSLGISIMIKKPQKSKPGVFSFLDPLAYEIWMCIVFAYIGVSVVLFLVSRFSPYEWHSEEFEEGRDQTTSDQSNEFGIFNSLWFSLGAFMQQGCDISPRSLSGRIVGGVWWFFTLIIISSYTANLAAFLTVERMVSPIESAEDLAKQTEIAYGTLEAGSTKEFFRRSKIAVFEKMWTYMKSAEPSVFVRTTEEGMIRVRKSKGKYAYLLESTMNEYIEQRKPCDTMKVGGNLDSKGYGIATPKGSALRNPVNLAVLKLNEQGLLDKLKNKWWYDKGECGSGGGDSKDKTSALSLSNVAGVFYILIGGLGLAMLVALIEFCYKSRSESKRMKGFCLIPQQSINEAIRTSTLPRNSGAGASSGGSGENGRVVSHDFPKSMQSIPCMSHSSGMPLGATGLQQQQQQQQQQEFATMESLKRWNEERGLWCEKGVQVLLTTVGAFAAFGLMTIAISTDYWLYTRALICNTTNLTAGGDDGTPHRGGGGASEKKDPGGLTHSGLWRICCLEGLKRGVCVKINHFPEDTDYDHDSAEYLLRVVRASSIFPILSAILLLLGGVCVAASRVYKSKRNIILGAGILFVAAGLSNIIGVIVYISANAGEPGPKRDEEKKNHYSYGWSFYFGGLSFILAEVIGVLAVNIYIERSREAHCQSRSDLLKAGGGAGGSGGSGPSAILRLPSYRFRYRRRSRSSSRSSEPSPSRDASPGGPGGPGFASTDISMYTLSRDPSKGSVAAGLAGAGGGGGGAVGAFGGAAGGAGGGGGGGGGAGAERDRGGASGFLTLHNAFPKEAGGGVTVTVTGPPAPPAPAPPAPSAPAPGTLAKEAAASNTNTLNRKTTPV

| SMILES | IC50 |
| --- | --- |
| O=C1Cc2cc(-c3c(-c4ccc(F)cc4)nc4c(N5CCO[C@@H](C(F)(F)F)C5)nccn34)ccc2N1 (single isomer, unassigned) [Example 48, (R*)-5-[2-(4-Fluorophenyl)-8-[2-(trifluoromethyl)morpholin-4-yl]imidazo[1,2-a]pyrazin-3-yl]indolin-2-one] | 12.6 nM |
| CN(C(=O)c1nc2c(N3CCOCC3)nccn2c1-c1ccc2[nH]c(=O)[nH]c2c1)c1ccccc1 [Example 145, N-Methyl-8-morpholino-3-(2-oxo-1,3-dihydrobenzimidazol-5-yl)-N-phenyl-imidazo[1,2-a]pyrazine-2-carboxamide] | 501 nM |
| O=C1Cc2cc(-c3c(-c4ccccc4)nn4c(OC5CCCC5)nccc34)ccc2N1 [Example 192, 5-[7-(Cyclopentoxy)-2-phenyl-pyrazolo[1,5-c]pyrimidin-3-yl]indolin-2-one] | 7.94 nM |
| CC(=O)N1CCN(c2nccn3c(-c4ccc5[nH]ncc5c4)c(-c4ccc(C#N)cc4)nc23)CC1 [Example 103, 4-[8-(4-Acetylpiperazin-1-yl)-3-(1H-indazol-5-yl)imidazo[1,2-a]pyrazin-2-yl]benzonitrile] | 0.794 nM |
| Fc1ccc(-c2nc3c(N4CCOCC4)nccn3c2-c2ccc3[nH]cnc3c2)cc1 [Example 31, 4-[3-(1H-Benzimidazol-5-yl)-2-(4-fluorophenyl)imidazo[1,2-a]pyrazin-8-yl]morpholine] | 631 nM |
| O=C1Cc2cc(-c3c(-c4ccc(F)cc4)nc4c(N5CC[C@@H](O)[C@H](F)C5)nccn34)ccc2N1 (relative stereo) [Example 70, (trans)-5-[8-(3-Fluoro-4-hydroxy-1-piperidyl)-2-(4-fluorophenyl)imidazo[1,2-a]pyrazin-3-yl]indolin-2-one] | 0.158 nM |
| CC(C)(C)c1nn2cnc(C(F)(F)F)cc2c1-c1ccc2[nH]c(=O)sc2c1 [Example 232, 6-[2-tert-Butyl-5-(trifluoromethyl)pyrazolo[1,5-c]pyrimidin-3-yl]-3H-1,3-benzothiazol-2-one] | 316 nM |
| O=c1[nH]c2ccc(-c3c(-c4ccccc4)nn4cnc(C(F)(F)F)cc34)cc2o1 [Example 223, 6-[2-Phenyl-5-(trifluoromethyl)pyrazolo[1,5-c]pyrimidin-3-yl]-3H-1,3-benzoxazol-2-one] | 501 nM |
| C[C@H]1COCCN1c1nccn2c(-c3ccc4c(c3)CC(=O)N4)c(-c3ccc(F)cc3)nc12 [Example 43, 5-[2-(4-Fluorophenyl)-8-[(3S)-3-methylmorpholin-4-yl]imidazo[1,2-a]pyrazin-3-yl]indolin-2-one] | 0.631 nM |
| Nc1nc2cc(-c3c(-c4ccc(F)cc4)nc4c(N5CCOCC5)nccn34)ccc2[nH]1 [Example 121, 5-[2-(4-Fluorophenyl)-8-morpholino-imidazo[1,2-a]pyrazin-3-yl]-1H-benzimidazol-2-amine] | 631 nM |
| CC(=O)N1CCN(c2nccn3c(-c4ccc5[nH]c(=O)[nH]c5c4)c(-c4ccc(F)cc4)nc23)CC1 [Example 14, 5-[8-(4-Acetylpiperazin-1-yl)-2-(4-fluorophenyl)imidazo[1,2-a]pyrazin-3-yl]-1,3-dihydrobenzimidazol-2-one] | 1.58 nM |
| CS(=O)(=O)c1nccn2c(-c3ccc4c(c3)CC(=O)N4)c(-c3ccc(F)cc3)nc12 [Example 127, 5-[2-(4-Fluorophenyl)-8-methylsulfonyl-imidazo[1,2-a]pyrazin-3-yl]indolin-2-one] | 398 nM |
| CNc1nccn2c(-c3ccc4c(c3)CC(=O)N4)c(-c3ccc(F)cc3)nc12 [Example 167, 5-[2-(4-Fluorophenyl)-8-(methylamino)imidazo[1,2-a]pyrazin-3-yl]indolin-2-one] | 25.1 nM |
| CN(C)c1nccn2c(-c3ccc4c(c3)CC(=O)N4)c(C(=O)Nc3ccccc3)nc12 [Example 144, 8-(Dimethylamino)-3-(2-oxoindolin-5-yl)-N-phenyl-imidazo[1,2-a]pyrazine-2-carboxamide] | 6.31 nM |
| O=S1(=O)Cc2cc(-c3c(-c4ccc(F)cc4)nc4c(N5CCOCC5)nccn34)ccc2N1 [Example 117, 5-[2-(4-Fluorophenyl)-8-morpholino-imidazo[1,2-a]pyrazin-3-yl]-1,3-dihydro-2,1-benzothiazole 2,2-dioxide] | 3.98 nM |
| O=C1Cc2cc(-c3c(-c4ccc(F)cc4)nc4c(N5CCO[C@H](C(F)(F)F)C5)nccn34)ccc2N1 (single isomer, unassigned) [Example 49, (S*)-5-[2-(4-Fluorophenyl)-8-[2-(trifluoromethyl)morpholin-4-yl]imidazo[1,2-a]pyrazin-3-yl]indolin-2-one] | 7.94 nM |
| O=C1CN(c2nccn3c(-c4ccc5c(c4)CC(=O)N5)c(C(=O)c4ccccc4)nc23)CCN1 [Example 246, 5-[2-Benzoyl-8-(3-oxopiperazin-1-yl)imidazo[1,2-a]pyrazin-3-yl]indolin-2-one] | 31.6 nM |
| O=C1Cc2cc(-c3c(-c4ccccc4)nc4c(N5CCOCC5)nccn34)ccc2N1 [Example 65, 5-(8-Morpholino-2-phenyl-imidazo[1,2-a]pyrazin-3-yl)indolin-2-one] | 0.158 nM |
| Fc1ccc(-c2nc3c(N4CCOCC4)nccn3c2-c2ccc3[nH]nnc3c2)cc1 [Example 30, 4-[3-(1H-Benzotriazol-5-yl)-2-(4-fluorophenyl)imidazo[1,2-a]pyrazin-8-yl]morpholine] | 79.4 nM |

| SMILES | IC50 |
| --- | --- |
| CC(=O)N1CCN(c2nccn3c(-c4ccc5[nH]ncc5c4)c(-c4ccc(F)cc4)nc23)CC1 [Example 13, 1-[4-[2-(4-Fluorophenyl)-3-(1H-indazol-5-yl)imidazo[1,2-a]pyrazin-8-yl]piperazin-1-yl]ethanone] | 0.2 nM |
| O=C1Cc2cc(-c3c(C4CC4)nn4cnc(C(F)(F)F)cc34)ccc2N1 [Example 228, 5-[2-Cyclopropyl-5-(trifluoromethyl)pyrazolo[1,5-c]pyrimidin-3-yl]indolin-2-one] | 39800 nM |
| O=C1Cc2cc(-c3c(-c4ccc(F)cc4)nc4c(NC5CCNC5=O)nccn34)ccc2N1 (stereo not shown) [Example 40, 5-[2-(4-Fluorophenyl)-8-[(2-oxopyrrolidin-3-yl)amino]imidazo[1,2-a]pyrazin-3-yl]indolin-2-one] | 251 nM |
| CN(C)c1nccn2c(-c3ccc4[nH]c(=O)[nH]c4c3)c(-c3ccc(F)cc3)nc12 [Example 101, 5-[8-(Dimethylamino)-2-(4-fluorophenyl)imidazo[1,2-a]pyrazin-3-yl]-1,3-dihydrobenzimidazol-2-one] | 0.501 nM |
| Oc1ccc(-c2c(-c3ccc(F)cc3)nc3c(N4CCNCC4)nccn23)cc1 [Example 5, 4-[2-(4-Fluorophenyl)-8-piperazin-1-yl-imidazo[1,2-a]pyrazin-3-yl]phenol] | 1260 nM |
| CC(=O)N1CCN(c2nccc3c(-c4ccc5c(c4)CC(=O)N5)c(-c4ccc(F)cc4)nn23)CC1 [Example 172, 5-[7-(4-Acetylpiperazin-1-yl)-2-(4-fluorophenyl)pyrazolo[1,5-c]pyrimidin-3-yl]indolin-2-one] | 0.158 nM |
| O=C1CN(c2nccn3c(-c4ccc5c(c4)CC(=O)N5)c(-c4ccc(F)cc4)nc23)CCN1 [Example 32, 5-[2-(4-Fluorophenyl)-8-(3-oxopiperazin-1-yl)imidazo[1,2-a]pyrazin-3-yl]indolin-2-one] | 0.501 nM |
| Fc1ccc(-c2nc3c(N4CCOCC4)nccn3c2-c2ccc3[nH]ccc3c2)cc1 [Example 16, 4-[2-(4-Fluorophenyl)-3-(1H-indol-5-yl)imidazo[1,2-a]pyrazin-8-yl]morpholine] | 15.8 nM |
| O=C1Cc2cc(-c3c(Cc4ccccc4)nc4c(N5CCOCC5)nccn34)ccc2N1 [Example 20, 5-(2-Benzyl-8-morpholino-imidazo[1,2-a]pyrazin-3-yl)indolin-2-one] | 1 nM |
| COC1CN(c2nccc3c(-c4ccc5c(c4)CC(=O)N5)c(-c4ccccc4)nn23)C1 [Example 191, 5-[7-(3-Methoxyazetidin-1-yl)-2-phenyl-pyrazolo[1,5-c]pyrimidin-3-yl]indolin-2-one] | 2.51 nM |
| CC(C)(C)c1nn2cnc(C(F)(F)F)cc2c1-c1ccc2c(c1)CC(=O)N2 [Example 225, 5-[2-tert-Butyl-5-(trifluoromethyl)pyrazolo[1,5-c]pyrimidin-3-yl]indolin-2-one] | 501 nM |
| N#Cc1ccc(-c2nc3c(N4CCOCC4)nccn3c2-c2ccc3[nH]ncc3c2)cc1 [Example 97, 4-[3-(1H-Indazol-5-yl)-8-morpholino-imidazo[1,2-a]pyrazin-2-yl]benzonitrile] | 3.98 nM |
| O=S1(=O)Cc2cc(-c3c(-c4ccc(F)cc4)nc4c(N5CC6(COC6)C5)nccn34)ccc2N1 [Example 108, 5-(2-(4-Fluorophenyl)-8-(2-oxa-6-azaspiro[3.3]heptan-6-yl)imidazo[1,2-a]pyrazin-3-yl)-1,3-dihydrobenzo[c]isothiazole 2,2-dioxide] | 15.8 nM |
| O=C1Cc2cc(-c3c(-c4ccc(F)cc4)nc4c(F)nccn34)ccc2N1 [Example 132, 5-[8-Fluoro-2-(4-fluorophenyl)imidazo[1,2-a]pyrazin-3-yl]indolin-2-one] | 631 nM |
| CC(C)(C)c1nn2c(N3CCC(O)CC3)nccc2c1-c1ccc2c(c1)CC(=O)N2 [Example 181, 5-[2-tert-Butyl-7-(4-hydroxy-1-piperidyl)pyrazolo[1,5-c]pyrimidin-3-yl]indolin-2-one] | 200 nM |
| COC1CN(c2nccn3c(-c4ccc5c(c4)CC(=O)N5)c(-c4ccccc4)nc23)C1 [Example 78, 5-[8-(3-Methoxyazetidin-1-yl)-2-phenyl-imidazo[1,2-a]pyrazin-3-yl]indolin-2-one] | 2 nM |
| O=C(NCc1ccccc1)c1nc2c(N3CCOCC3)nccn2c1-c1ccc2[nH]c(=O)[nH]c2c1 [Example 139, N-Benzyl-8-morpholino-3-(2-oxo-1,3-dihydrobenzimidazol-5-yl)imidazo[1,2-a]pyrazine-2-carboxamide] | 25.1 nM |
| O=C1Cc2cc(-c3c(-c4ccc(F)cc4)nc4c(N5CCOCC5)ncc(F)n34)ccc2N1 [Example 161, 5-(5-Fluoro-2-(4-fluorophenyl)-8-morpholinoimidazo[1,2-a]pyrazin-3-yl)indolin-2-one] | 6.31 nM |
